Target: T1, ZrFsy1 (Zygosaccharomyces rouxii, UniProt C5DSI4)
T1 construct: gene ZYRO0C00374g; full length, 564 residues, C-terminal GFP tag, multicopy plasmid pZRS1-S (own promoter), expressed in S. cerevisiae hxt-null EBY.VW4000
T1 sequence (C5DSI4 1-564): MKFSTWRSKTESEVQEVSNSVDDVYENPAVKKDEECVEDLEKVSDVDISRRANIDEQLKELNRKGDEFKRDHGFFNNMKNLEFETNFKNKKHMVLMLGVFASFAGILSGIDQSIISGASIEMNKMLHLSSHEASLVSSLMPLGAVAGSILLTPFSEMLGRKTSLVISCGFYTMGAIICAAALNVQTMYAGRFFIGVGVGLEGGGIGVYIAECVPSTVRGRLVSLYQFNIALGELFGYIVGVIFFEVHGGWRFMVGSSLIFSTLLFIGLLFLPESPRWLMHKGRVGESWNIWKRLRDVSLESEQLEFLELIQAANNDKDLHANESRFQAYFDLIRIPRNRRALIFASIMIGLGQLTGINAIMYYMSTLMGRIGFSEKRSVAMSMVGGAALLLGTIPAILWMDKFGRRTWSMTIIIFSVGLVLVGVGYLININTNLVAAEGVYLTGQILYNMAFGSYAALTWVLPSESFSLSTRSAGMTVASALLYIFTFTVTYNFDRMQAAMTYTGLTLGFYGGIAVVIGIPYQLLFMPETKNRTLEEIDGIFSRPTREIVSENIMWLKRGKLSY
Assay: inhibition of [U-14C]fructose uptake; extracellular alkalinisation on sorbose pulse
Assay type: cell-based
Conditions: competitor of labelled fructose; 10 mM sorbose, 25 °C, pH 5 in the proton symport assay; D / L form not stated

OCC1(O)OC[C@H](O)[C@@H](O)[C@@H]1O (stereo partly shown) [sorbose]
inhibition of [U-14C]fructose uptake; extracellular alkalinisation on sorbose pu: transport of radioactive fructose by ZrFsy1 was inhibited by sorbose but not by glucose

— article PMC3699521, “ZrFsy1, a High-Affinity Fructose/H^+ Symporter from Fructophilic Yeast Zygosaccharomyces rouxii” (PLoS ONE, 2013)
